Patent publication US20260109721A1, “IONIZABLE CATIONIC LIPIDS INCORPORATING SILICON: SYNTHESIS AND LNP FORMULATION” (priority 2023, published 2026)

Key:
[1] = Encapsulation efficiency of loaded LNPs, RiboGreen RNA assay (Method A); assay type: physicochemical; conditions: encapsulation efficiency of mRNA-loaded LNP, Method A, RiboGreen
In short: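 Encapsulation determined by RiboGreen fluorescence (excitation 480, emission 525) comparing Triton X-100–lysed and intact LNP wells, duplicates, after 10 min at 37° C and cooling to room temperature. Sample stocks ~4-7 μg/mL RNA in TE buffer; concentration from RNA standard curve.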

HepG2 cell line = test: In vitro toxicity study on HepG2 cell line (resazurin, viability and IC50); assay type: cell-based, human; conditions: for IC50: Homo sapiens, lipid toxicity, HepG2, 48 h post-treatment, 6.25-800 μM, read-out: IC50 value, μM (on HepG2 cell)
In short: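 Resazurin read-out (ex 530/em 580 nm, 5 h at 37 °C) measured lipid toxicity 48 h after dosing HepG2 cells (1000/well) at 6.25–800 μM. Viability was normalised to ethanol vehicle, and IC50 was derived from concentration-response curves.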

[2] = HepG2 cells, 6.25 μM lipid, 48 h post-treatment, resazurin, relative to ethanol vehicle controls
[3] = HepG2 cells, 12.5 μM lipid, 48 h post-treatment, resazurin, relative to ethanol vehicle controls
[4] = HepG2 cells, 25 μM lipid, 48 h post-treatment, resazurin, relative to ethanol vehicle controls
[5] = HepG2 cells, 50 μM lipid, 48 h post-treatment, resazurin, relative to ethanol vehicle controls
[6] = HepG2 cells, 100 μM lipid, 48 h post-treatment, resazurin, relative to ethanol vehicle controls
[7] = HepG2 cells, 200 μM lipid, 48 h post-treatment, resazurin, relative to ethanol vehicle controls
[8] = HepG2 cells, 400 μM lipid, 48 h post-treatment, resazurin, relative to ethanol vehicle controls
[9] = HepG2 cells, 800 μM lipid, 48 h post-treatment, resazurin, relative to ethanol vehicle controls

Row | SMILES | EE (%) [1] [%] | Viability (%) at different lipid concentrations, mean (HepG2 cell line; [2]) [%] | Viability (%) at different lipid concentrations, mean (HepG2 cell line; [3]) [%] | Viability (%) at different lipid concentrations, mean (HepG2 cell line; [4]) [%] | Viability (%) at different lipid concentrations, mean (HepG2 cell line; [5]) [%] | Viability (%) at different lipid concentrations, mean (HepG2 cell line; [6]) [%] | Viability (%) at different lipid concentrations, mean (HepG2 cell line; [7]) [%] | Viability (%) at different lipid concentrations, mean (HepG2 cell line; [8]) [%] | Viability (%) at different lipid concentrations, mean (HepG2 cell line; [9]) [%] | IC50 (HepG2 cell line; resazurin) [µM] | Viability (%) at different lipid concentrations, mean (HepG2 cell line; human, 48 h, 6.25 μM) [%] | Viability (%) at different lipid concentrations, mean (HepG2 cell line; human, 48 h, 50 μM) [%]
1 | CCCCCCCC/C=C\CCCCCCCCOC(=O)C(C)(C)CC(OCCCCCCCC/C=C\CCCCCCCC)O[Si](C)(C)OCCCCCCN(C)CCO (stereo not shown) [Example 93, (Z)-octadec-9-en-1-yl 1-hydroxy-3,11,11,15,15-pentamethyl-13-(((Z)-octadec-9-en-1-yl)oxy)-10,12-dioxa-3-aza-11-silahexadecan-16-oate] | 88 | 102.3 | 99.0 | 105.2 | 112.1 | 111.6 | 99.7 | 83.4 | 72.2 | > 800 | – | –
2 | CCCCCCCC/C=C\CCCCCCCCOC(=O)C(C)(C)CCC(OCCCCCCCC/C=C\CCCCCCCC)O[Si](C)(C)OCCCCCCN(CCO)CCO (stereo not shown) [Example 94, (Z)-octadec-9-en-1-yl 1-hydroxy-3-(2-hydroxyethyl)-11,11,16,16-tetramethyl-13-(((Z)-octadec-9-en-1-yl)oxy)-10,12-dioxa-3-aza-11-silaheptadecan-17-oate] | 86 | – | 96.6 | 97.9 | – | 106.5 | 107.9 | 104.0 | 103.1 | > 800 | 101.5 | 101.3
3 | CCCCCCCC/C=C\CCCCCCCCOC(=O)C(C)(C)CCC(OCCCCCCCC/C=C\CCCCCCCC)O[Si](C)(C)OCCCCCCN1CCOCC1 (stereo not shown) [Example 95, (Z)-octadec-9-en-1-yl 5-((dimethyl((6-morpholinohexyl)oxy)silyl)oxy)-2,2-dimethyl-5-(((Z)-octadec-9-en-1-yl)oxy)pentanoate] | 88 | 102.8 | 97.8 | 98.4 | 99.7 | 98.8 | 100.3 | 103.6 | 104.6 | > 800 | – | –
4 | CCCCCCCC/C=C\CCCCCCCCOC(=O)C(C)(C)CC(OCCCCCCCC/C=C\CCCCCCCC)O[Si](C)(C)OCCCCCCN(CCO)CCN(CCO)CCCCCCO[Si](C)(C)OC(CC(C)(C)C(=O)OCCCCCCCC/C=C\CCCCCCCC)OCCCCCCCC/C=C\CCCCCCCC (stereo not shown) [Example 96, di((Z)-octadec-9-en-1-yl) 14,17-bis(2-hydroxyethyl)-2,2,6,6,25,25,29,29-octamethyl-4,27-bis(((Z)-octadec-9-en-1-yl)oxy)-5,7,24,26-tetraoxa-14,17-diaza-6,25-disilatriacontanedioate] | 89 | 98.62 | 98.94 | 97.36 | 96.50 | 95.63 | 90.16 | 67.88 | 5.80 | 465 | – | –
